The results in this text go back to patent US20160361340A1, “TREATMENT OF CARDIAC DISEASES WITH MODULATORS OF THE HIPPO PATHWAY” (INSTITUT PASTEUR, priority 2014, published 2016).

Assay type in all cases: cell-based, rat
Common to all, as to conditions: primary cultures of cardiomyocytes

For one data set, the system named is Amotl1. Put plainly: RT-qPCR control of RNA interference efficiency, Amotl1. The method, then:
(§1) cDNAs were reverse transcribed from RNAs extracted in TRIzol from cell cultures and isolated hearts using the Quanti-Tect kit (Qiagen) and Superscript II Reverse Transcriptase (Life Technologies) respectively. Quantitative PCR was carried out on a StepOne System (Life Technologies) using Fast Start SYBR Green Master (Roche). Quantification of gene expression was calculated as R=2^ΔCt(control-target), with Gapdh used as a control. Primers were designed using the NCBI Primer-BLAST software. Primer sequences are listed in Supplementary Table 1.
(§2) Primary cultures of newborn rat cardiomyocytes, performed as previously described^34, were transfected with siRNA at 10 pM using Lipofectamine RNAiMax with silencer-siRNA at 24 h and analysed at 72 h, or 96 h (FIG. 3c). Control (Ambion 4390843), Fat4 (siRNA-1: Ambion s172170, siRNA-2: […], siRNA-3 […]), Amotl1 (siRNA-1: […], siRNA-2: […], siRNA-3: […]), Yap1 (siRNA-1: Ambion s170200, siRNA-2: […], siRNA-3: […]) siRNA were used. Efficiency of the interference was controlled by RT-qPCR. In the figures, Fat4 siRNA is Fat4-siRNA-1, Yap1 siRNA is a pool of siRNA-1 to 3 and Amotl1 siRNA is a pool of siRNA-1 to 3.
Background: In qPCR the cycle at which signal appears reflects the starting amount.

The test system of a further data set is Yap1. Put plainly: RT-qPCR control of RNA interference efficiency, Yap1. The method, then: as §1, §2
In another data set the test system is Fat4. In words: RT-qPCR control of RNA interference efficiency, Fat4. As to the method:
as §1, §2

Take “Amotl1 siRNA-2: siRNA against rat Amotl1, GAGUAUCUCAGAGGCCUAUTT (chemistry not given here)”: in the data set on Amotl1, the “down-regulation of Amotl1 relative to Gapdh transcripts” value is “Efficient down-regulation”.
Take “Yap1 siRNA-3: siRNA against rat Yap1, GGAGAAGUUUACUACAUAATT (chemistry not given here)”: the “down-regulation of Yap1 relative to Gapdh transcripts” value in the data set with Yap1 was “Efficient down-regulation”.
Regarding “Fat4 siRNA-2: siRNA against rat Fat4, CCUGUACCCUGAGUAUUGATT (chemistry not given here)”, the “down-regulation of Fat4 relative to Gapdh transcripts” value in the data set on Fat4 is “Efficient down-regulation”.
On to “Amotl siRNA-1: siRNA against rat Amotl1, AUCUCUACCAUUUGUUGGGTT (chemistry not given here)”, for which, in the data set on Amotl1, the “down-regulation of Amotl1 relative to Gapdh transcripts” value is recorded as “Efficient down-regulation”.
“Yap1 siRNA-2: siRNA against rat Yap1, GUCAGAGAUACUUCUUAAATT (chemistry not given here)”: the “down-regulation of Yap1 relative to Gapdh transcripts” value in the data set with Yap1 was “Efficient down-regulation”.
In the case of “Amotl1 siRNA-3: siRNA against rat Amotl1, CAUCACAUGUCCCAGAAUATT (chemistry not given here)”, the “down-regulation of Amotl1 relative to Gapdh transcripts” value in the data set on Amotl1 was “Efficient down-regulation”.
For the substance “Fat4 siRNA-3: siRNA against rat Fat4, CCGUCCUUGUGUUUAACGUTT (chemistry not given here)”, the “down-regulation of Fat4 relative to Gapdh transcripts” value with Fat4 is given as “Efficient down-regulation”.
